Assays:
Assay in all cases: Test C postemergence
Format in all cases: in vivo
[1] = test system: Surinam grass (Brachiaria decumbens)
Outline: (§1)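 Herbicidal effect is a visual 0–100 score (100 = complete control) assigned versus untreated plants, 12 to 14 days after spraying in the greenhouse. Test compounds were applied in a non-phytotoxic, surfactant-containing solvent.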

[2] = test system: bermudagrass (Cynodon dactylon)
Outline: as §1

[3] = test system: chickweed (Stellaria media)
Outline: as §1

[4] = test system: cocklebur (Xanthium strumarium)
Outline: as §1

[5] = test system: common ragweed (Ambrosia elatior)
Outline: as §1

corn (Zea mays) = test system: corn (Zea mays)
Outline: as §1

[6] = test system: crabgrass (Digitaria sanguinalis)
Outline: as §1

[7] = test system: giant foxtail (Setaria faberii)
Outline: as §1

[8] = test system: goosegrass (Eleusine indica)
Outline: as §1

[9] = test system: johnsongrass (Sorghum halepense)
Outline: as §1

[10] = test system: morningglory (Ipomoea hederacea)
Outline: as §1

soybean (Glycine max) = test system: soybean (Glycine max)
Outline: as §1

[11] = test system: velvetleaf (Abutilon theophrasti)
Outline: as §1

[12] = test system: woolly cupgrass (Eriochloa villosa)
Outline: as §1

[13] = test system: yellow nutsedge (Cyperus esculentus)
Outline: as §1

[14] = Rate 125 g/ha, scale 0 to 100, 0 no effect, 100 complete control
[15] = Rate 250 g/ha, scale 0 to 100 (0 no effect, 100 complete control)
[16] = Rate 62 g/ha, scale 0 to 100, 0 no effect, 100 complete control
[17] = Rate 500 g/ha, scale 0 to 100 (0 no effect, 100 complete control)

Structure (SMILES): O=C1C(n2ccc(C3CCC3)n2)SCN1c1cccc(C(F)(F)F)c1 (stereo not drawn) [Compound 37]
- Plant response rating, Surinam grass ([1]; Rate 31 g/ha, scale 0 to 100): 0
- Plant response rating, Surinam grass [1, 14]: 0
- Plant response rating, Surinam grass [1, 15]: 0
- Plant response rating, Bermudagrass ([2]; Rate 31 g/ha, scale 0 to 100): 0
- Plant response rating, Bermudagrass [2, 16]: 0
- Plant response rating, Bermudagrass [2, 14]: 0
- Plant response rating, Bermudagrass [2, 15]: 0
- Plant response rating, Chickweed ([3]; Rate 31 g/ha, scale 0 to 100): 0
- Plant response rating, Chickweed [3, 16]: 0
- Plant response rating, Chickweed [3, 14]: 0
- Plant response rating, Chickweed [3, 15]: 0
- Plant response rating, Cocklebur ([4]; Rate 31 g/ha, scale 0 to 100): 0
- Plant response rating, Cocklebur [4, 14]: 0
- Plant response rating, Cocklebur [4, 15]: 0
- Plant response rating, Ragweed, Common ([5]; Rate 31 g/ha, scale 0 to 100): 0
- Plant response rating, Ragweed, Common [5, 14]: 0
- Plant response rating, Ragweed, Common [5, 15]: 0
- Plant response rating, Corn (corn (Zea mays); Rate 31 g/ha, scale 0 to 100): 0
- Plant response rating, Corn (corn (Zea mays); [14]): 0
- Plant response rating, Corn (corn (Zea mays); [15]): 0
- Plant response rating, Crabgrass ([6]; Rate 31 g/ha, scale 0 to 100): 0
- Plant response rating, Crabgrass [6, 14]: 0
- Plant response rating, Crabgrass [6, 15]: 0
- Plant response rating, Foxtail, Giant ([7]; Rate 31 g/ha, scale 0 to 100): 0
- Plant response rating, Foxtail, Giant [7, 14]: 0
- Plant response rating, Foxtail, Giant [7, 15]: 0
- Plant response rating, Goosegrass ([8]; Rate 31 g/ha, scale 0 to 100): 0
- Plant response rating, Goosegrass [8, 14]: 0
- Plant response rating, Goosegrass [8, 15]: 0
- Plant response rating, Johnsongrass ([9]; Rate 31 g/ha, scale 0 to 100): 0
- Plant response rating, Johnsongrass [9, 14]: 0
- Plant response rating, Johnsongrass [9, 15]: 0
- Plant response rating, Morningglory ([10]; Rate 31 g/ha, scale 0 to 100): 0
- Plant response rating, Morningglory [10, 14]: 0
- Plant response rating, Morningglory [10, 15]: 0
- Plant response rating, Soybean (soybean (Glycine max); Rate 31 g/ha, scale 0 to 100): 0
- Plant response rating, Soybean (soybean (Glycine max); [14]): 0
- Plant response rating, Soybean (soybean (Glycine max); [15]): 0
- Plant response rating, Velvetleaf ([11]; Rate 31 g/ha, scale 0 to 100): 0
- Plant response rating, Velvetleaf [11, 14]: 0
- Plant response rating, Velvetleaf [11, 15]: 0
- Plant response rating, Cupgrass, Woolly ([12]; Rate 31 g/ha, scale 0 to 100): 0
- Plant response rating, Cupgrass, Woolly [12, 14]: 0
- Plant response rating, Cupgrass, Woolly [12, 15]: 0
- Plant response rating, Nutsedge ([13]; Rate 31 g/ha, scale 0 to 100): 0
- Plant response rating, Nutsedge [13, 14]: 0
- Plant response rating, Nutsedge [13, 15]: 0

Structure (SMILES): COc1cc(N2CCC(n3ccc(C(C)C)n3)C2=O)ccc1C (stereo not drawn) [Compound 85]
- Plant response rating, Surinam grass ([1]; Rate 62 g/ha, scale 0 to 100): 0
- Plant response rating, Surinam grass [1, 14]: 20
- Plant response rating, Surinam grass [1, 15]: 20
- Plant response rating, Surinam grass [1, 17]: 60
- Plant response rating, Bermudagrass ([2]; Rate 62 g/ha, scale 0 to 100): 0
- Plant response rating, Bermudagrass [2, 14]: 0
- Plant response rating, Bermudagrass [2, 15]: 80
- Plant response rating, Bermudagrass [2, 17]: 90
- Plant response rating, Chickweed ([3]; Rate 62 g/ha, scale 0 to 100): 20
- Plant response rating, Chickweed [3, 14]: 70
- Plant response rating, Chickweed [3, 15]: 100
- Plant response rating, Chickweed [3, 17]: 100
- Plant response rating, Cocklebur ([4]; Rate 62 g/ha, scale 0 to 100): 40
- Plant response rating, Cocklebur [4, 14]: 70
- Plant response rating, Cocklebur [4, 15]: 90
- Plant response rating, Cocklebur [4, 17]: 90
- Plant response rating, Ragweed, Common ([5]; Rate 62 g/ha, scale 0 to 100): 0
- Plant response rating, Ragweed, Common [5, 14]: 20
- Plant response rating, Ragweed, Common [5, 15]: 20
- Plant response rating, Ragweed, Common [5, 17]: 90
- Plant response rating, Corn (corn (Zea mays); Rate 62 g/ha, scale 0 to 100): 50
- Plant response rating, Corn (corn (Zea mays); [14]): 50
- Plant response rating, Corn (corn (Zea mays); [15]): 50
- Plant response rating, Corn (corn (Zea mays); [17]): 60
- Plant response rating, Crabgrass ([6]; Rate 62 g/ha, scale 0 to 100): 30
- Plant response rating, Crabgrass [6, 14]: 30
- Plant response rating, Crabgrass [6, 15]: 40
- Plant response rating, Crabgrass [6, 17]: 70
- Plant response rating, Foxtail, Giant ([7]; Rate 62 g/ha, scale 0 to 100): 20
- Plant response rating, Foxtail, Giant [7, 14]: 20
- Plant response rating, Foxtail, Giant [7, 15]: 40
- Plant response rating, Foxtail, Giant [7, 17]: 70
- Plant response rating, Goosegrass ([8]; Rate 62 g/ha, scale 0 to 100): 10
- Plant response rating, Goosegrass [8, 14]: 10
- Plant response rating, Goosegrass [8, 15]: 20
- Plant response rating, Goosegrass [8, 17]: 60
- Plant response rating, Johnsongrass ([9]; Rate 62 g/ha, scale 0 to 100): 30
- Plant response rating, Johnsongrass [9, 14]: 40
- Plant response rating, Johnsongrass [9, 15]: 40
- Plant response rating, Johnsongrass [9, 17]: 70
- Plant response rating, Morningglory ([10]; Rate 62 g/ha, scale 0 to 100): 60
- Plant response rating, Morningglory [10, 14]: 80
- Plant response rating, Morningglory [10, 15]: 80
- Plant response rating, Morningglory [10, 17]: 90
- Plant response rating, Soybean (soybean (Glycine max); Rate 62 g/ha, scale 0 to 100): 60
- Plant response rating, Soybean (soybean (Glycine max); [14]): 60
- Plant response rating, Soybean (soybean (Glycine max); [15]): 70
- Plant response rating, Soybean (soybean (Glycine max); [17]): 70
- Plant response rating, Velvetleaf ([11]; Rate 62 g/ha, scale 0 to 100): 40
- Plant response rating, Velvetleaf [11, 14]: 40
- Plant response rating, Velvetleaf [11, 15]: 40
- Plant response rating, Velvetleaf [11, 17]: 40
- Plant response rating, Cupgrass, Woolly ([12]; Rate 62 g/ha, scale 0 to 100): 30
- Plant response rating, Cupgrass, Woolly [12, 14]: 30
- Plant response rating, Cupgrass, Woolly [12, 15]: 60
- Plant response rating, Cupgrass, Woolly [12, 17]: 70
- Plant response rating, Nutsedge ([13]; Rate 62 g/ha, scale 0 to 100): 10
- Plant response rating, Nutsedge [13, 17]: 90

Structure (SMILES): CCC(CC)c1ccn(C2CCN(c3ccc(C)c(OC)c3)C2=O)n1 (stereo not drawn) [Compound 81]
- Plant response rating, Surinam grass ([1]; Rate 31 g/ha, scale 0 to 100): 0
- Plant response rating, Surinam grass ([1]; Rate 62 g/ha, scale 0 to 100): 0
- Plant response rating, Surinam grass [1, 14]: 0
- Plant response rating, Surinam grass [1, 15]: 0
- Plant response rating, Bermudagrass ([2]; Rate 31 g/ha, scale 0 to 100): 0
- Plant response rating, Bermudagrass ([2]; Rate 62 g/ha, scale 0 to 100): 0
- Plant response rating, Bermudagrass [2, 14]: 0
- Plant response rating, Bermudagrass [2, 15]: 0
- Plant response rating, Chickweed ([3]; Rate 31 g/ha, scale 0 to 100): 0
- Plant response rating, Chickweed ([3]; Rate 62 g/ha, scale 0 to 100): 20
- Plant response rating, Chickweed [3, 14]: 20
- Plant response rating, Chickweed [3, 15]: 60
- Plant response rating, Cocklebur ([4]; Rate 31 g/ha, scale 0 to 100): 0
- Plant response rating, Cocklebur ([4]; Rate 62 g/ha, scale 0 to 100): 0
- Plant response rating, Cocklebur [4, 14]: 20
- Plant response rating, Cocklebur [4, 15]: 50
- Plant response rating, Ragweed, Common ([5]; Rate 31 g/ha, scale 0 to 100): 0
- Plant response rating, Ragweed, Common ([5]; Rate 62 g/ha, scale 0 to 100): 0
- Plant response rating, Ragweed, Common [5, 14]: 0
- Plant response rating, Ragweed, Common [5, 15]: 0
- Plant response rating, Corn (corn (Zea mays); Rate 31 g/ha, scale 0 to 100): 0
- Plant response rating, Corn (corn (Zea mays); Rate 62 g/ha, scale 0 to 100): 0
- Plant response rating, Corn (corn (Zea mays); [14]): 0
- Plant response rating, Corn (corn (Zea mays); [15]): 0
- Plant response rating, Crabgrass ([6]; Rate 31 g/ha, scale 0 to 100): 0
- Plant response rating, Crabgrass ([6]; Rate 62 g/ha, scale 0 to 100): 0
- Plant response rating, Crabgrass [6, 14]: 0
- Plant response rating, Crabgrass [6, 15]: 0
- Plant response rating, Foxtail, Giant ([7]; Rate 31 g/ha, scale 0 to 100): 0
- Plant response rating, Foxtail, Giant ([7]; Rate 62 g/ha, scale 0 to 100): 0
- Plant response rating, Foxtail, Giant [7, 14]: 0
- Plant response rating, Foxtail, Giant [7, 15]: 0
- Plant response rating, Goosegrass ([8]; Rate 31 g/ha, scale 0 to 100): 0
- Plant response rating, Goosegrass ([8]; Rate 62 g/ha, scale 0 to 100): 0
- Plant response rating, Goosegrass [8, 14]: 0
- Plant response rating, Goosegrass [8, 15]: 20
- Plant response rating, Johnsongrass ([9]; Rate 31 g/ha, scale 0 to 100): 0
- Plant response rating, Johnsongrass ([9]; Rate 62 g/ha, scale 0 to 100): 0
- Plant response rating, Johnsongrass [9, 14]: 0
- Plant response rating, Johnsongrass [9, 15]: 0
- Plant response rating, Morningglory ([10]; Rate 31 g/ha, scale 0 to 100): 50
- Plant response rating, Morningglory ([10]; Rate 62 g/ha, scale 0 to 100): 60
- Plant response rating, Morningglory [10, 14]: 80
- Plant response rating, Morningglory [10, 15]: 80
- Plant response rating, Soybean (soybean (Glycine max); Rate 31 g/ha, scale 0 to 100): 50
- Plant response rating, Soybean (soybean (Glycine max); Rate 62 g/ha, scale 0 to 100): 60
- Plant response rating, Soybean (soybean (Glycine max); [14]): 70
- Plant response rating, Soybean (soybean (Glycine max); [15]): 90
- Plant response rating, Velvetleaf ([11]; Rate 31 g/ha, scale 0 to 100): 20
- Plant response rating, Velvetleaf ([11]; Rate 62 g/ha, scale 0 to 100): 20
- Plant response rating, Velvetleaf [11, 14]: 20
- Plant response rating, Velvetleaf [11, 15]: 20
- Plant response rating, Cupgrass, Woolly ([12]; Rate 31 g/ha, scale 0 to 100): 0
- Plant response rating, Cupgrass, Woolly ([12]; Rate 62 g/ha, scale 0 to 100): 0
- Plant response rating, Cupgrass, Woolly [12, 14]: 0
- Plant response rating, Cupgrass, Woolly [12, 15]: 0
- Plant response rating, Nutsedge ([13]; Rate 31 g/ha, scale 0 to 100): 0
- Plant response rating, Nutsedge ([13]; Rate 62 g/ha, scale 0 to 100): 0
- Plant response rating, Nutsedge [13, 14]: 0
- Plant response rating, Nutsedge [13, 15]: 0

— patent US7138361B2, “Herbicidal heterocycles” (E. I. du Pont de Nemours and Company, priority 2000, dated 2006)
